Assay results published in the kinase profiling compilation of Christmann-Franck et al. (2016).

Key:
Test in all cases: KINOMEscan competition binding
Settings in all cases: compound 10.0 µM
[1] = molecular target: ACVRL1 (human) (UniProt P37023)
[2] = molecular target: ADCK3 (human) (UniProt Q8NI60)
[3] = molecular target: AURKB (human) (UniProt Q96GD4)
[4] = molecular target: BMPR1B (human) (UniProt O00238)
[5] = molecular target: BMX (human) (UniProt P51813)
[6] = molecular target: CAMK1D (human) (UniProt Q8IU85)
[7] = molecular target: CDC2L2 (human) (UniProt Q9UQ88)
[8] = molecular target: CDK11B (human) (UniProt P21127)
[9] = molecular target: EIF2AK2 (human) (UniProt P19525)
[10] = molecular target: EPHA6 (human) (UniProt Q9UF33)
[11] = molecular target: FES (human) (UniProt P07332)
[12] = molecular target: HIPK4 (human) (UniProt Q8NE63)
[13] = molecular target: KDR (human) (UniProt P35968)
[14] = molecular target: KIT (human) (UniProt P10721)
[15] = molecular target: LIMK1 (human) (UniProt P53667)
[16] = molecular target: MAP2K1 (human) (UniProt Q02750)
[17] = molecular target: MAP3K1 (human) (UniProt Q13233)
[18] = molecular target: MAP3K12 (human) (UniProt Q12852)
[19] = molecular target: MAP3K5 (human) (UniProt Q99683)
[20] = molecular target: MAP4K1 (human) (UniProt Q92918)
MAP4K1 (human), sequence (Q92918 whole entry, looked up): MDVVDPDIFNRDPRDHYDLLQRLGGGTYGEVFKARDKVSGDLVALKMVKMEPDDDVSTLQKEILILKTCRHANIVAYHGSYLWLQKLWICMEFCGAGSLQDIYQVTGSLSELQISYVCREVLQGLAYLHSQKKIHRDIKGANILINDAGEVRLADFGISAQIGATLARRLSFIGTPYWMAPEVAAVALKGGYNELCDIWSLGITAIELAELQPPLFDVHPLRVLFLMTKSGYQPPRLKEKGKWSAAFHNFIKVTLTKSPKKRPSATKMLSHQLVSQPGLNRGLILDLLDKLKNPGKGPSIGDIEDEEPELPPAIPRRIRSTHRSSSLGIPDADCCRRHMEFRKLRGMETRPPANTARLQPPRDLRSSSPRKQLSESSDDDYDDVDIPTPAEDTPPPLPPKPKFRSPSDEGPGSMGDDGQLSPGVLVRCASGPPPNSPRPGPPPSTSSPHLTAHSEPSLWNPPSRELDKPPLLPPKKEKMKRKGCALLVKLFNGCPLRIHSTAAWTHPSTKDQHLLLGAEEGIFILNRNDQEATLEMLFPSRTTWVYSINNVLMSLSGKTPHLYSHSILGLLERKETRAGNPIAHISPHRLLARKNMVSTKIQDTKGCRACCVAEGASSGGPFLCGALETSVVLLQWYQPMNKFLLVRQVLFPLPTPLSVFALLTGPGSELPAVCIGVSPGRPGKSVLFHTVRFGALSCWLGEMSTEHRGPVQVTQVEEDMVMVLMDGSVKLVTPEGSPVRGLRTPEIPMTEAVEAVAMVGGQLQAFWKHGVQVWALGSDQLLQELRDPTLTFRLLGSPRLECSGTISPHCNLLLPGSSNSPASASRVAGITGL

[21] = molecular target: MAP4K3 (human) (UniProt Q8IVH8)
[22] = molecular target: MAPK15 (human) (UniProt Q8TD08)
[23] = molecular target: MAPKAPK2 (human) (UniProt P49137)
[24] = molecular target: NEK9 (human) (UniProt Q8TD19)
[25] = system: PIK3CA (human), P42336 [C420R]
[26] = molecular target: PRKCH (human) (UniProt P24723)
[27] = molecular target: PRKD1 (human) (UniProt Q15139)
[28] = molecular target: PRKD2 (human) (UniProt Q9BZL6)
PRKD2 (human), sequence (Q9BZL6 whole entry, looked up): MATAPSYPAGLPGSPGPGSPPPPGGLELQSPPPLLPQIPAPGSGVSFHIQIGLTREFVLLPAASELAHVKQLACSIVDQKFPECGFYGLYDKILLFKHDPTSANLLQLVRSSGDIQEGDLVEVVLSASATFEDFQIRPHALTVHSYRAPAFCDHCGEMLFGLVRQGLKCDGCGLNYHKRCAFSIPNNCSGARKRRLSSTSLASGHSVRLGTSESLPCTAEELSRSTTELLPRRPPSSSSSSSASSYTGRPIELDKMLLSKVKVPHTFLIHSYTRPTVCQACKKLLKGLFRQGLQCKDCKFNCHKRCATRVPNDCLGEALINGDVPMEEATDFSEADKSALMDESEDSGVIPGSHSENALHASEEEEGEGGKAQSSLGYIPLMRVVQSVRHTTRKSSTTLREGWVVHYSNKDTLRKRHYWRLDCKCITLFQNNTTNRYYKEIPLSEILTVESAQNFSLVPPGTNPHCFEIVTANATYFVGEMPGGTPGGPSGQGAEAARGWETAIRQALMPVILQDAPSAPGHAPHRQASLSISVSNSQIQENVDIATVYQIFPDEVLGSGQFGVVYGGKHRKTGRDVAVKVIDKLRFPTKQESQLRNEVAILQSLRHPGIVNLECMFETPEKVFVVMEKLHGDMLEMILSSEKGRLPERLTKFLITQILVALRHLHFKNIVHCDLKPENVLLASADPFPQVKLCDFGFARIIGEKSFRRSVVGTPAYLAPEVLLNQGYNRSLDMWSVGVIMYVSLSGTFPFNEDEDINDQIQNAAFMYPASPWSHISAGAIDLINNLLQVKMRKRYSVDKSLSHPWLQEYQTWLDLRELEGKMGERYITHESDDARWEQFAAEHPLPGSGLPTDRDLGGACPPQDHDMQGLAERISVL

[29] = molecular target: PTK2B (human) (UniProt Q14289)
[30] = molecular target: RIOK2 (human) (UniProt Q9BVS4)
RIOK2 (human), sequence (Q9BVS4 whole entry, looked up): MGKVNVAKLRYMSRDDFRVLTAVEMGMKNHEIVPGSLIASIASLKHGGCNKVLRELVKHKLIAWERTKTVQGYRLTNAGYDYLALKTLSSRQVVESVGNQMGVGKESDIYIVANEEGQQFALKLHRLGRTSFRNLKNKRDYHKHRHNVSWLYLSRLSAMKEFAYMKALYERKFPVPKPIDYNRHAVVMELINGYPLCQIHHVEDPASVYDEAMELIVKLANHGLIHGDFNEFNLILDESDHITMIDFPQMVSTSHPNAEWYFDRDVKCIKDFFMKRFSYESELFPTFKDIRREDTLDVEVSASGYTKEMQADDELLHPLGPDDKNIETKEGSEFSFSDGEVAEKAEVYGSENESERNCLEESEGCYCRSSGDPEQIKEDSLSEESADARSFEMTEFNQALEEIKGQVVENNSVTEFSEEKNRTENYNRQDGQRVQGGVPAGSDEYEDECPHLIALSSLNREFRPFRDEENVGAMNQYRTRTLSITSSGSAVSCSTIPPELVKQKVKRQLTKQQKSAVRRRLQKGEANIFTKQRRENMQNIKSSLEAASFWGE

[31] = molecular target: ROCK2 (human) (UniProt O75116)
[32] = molecular target: RPS6KA2 KD1 (human) (UniProt Q15349)
[33] = molecular target: STK25 (human) (UniProt O00506)
[34] = molecular target: STK4 (human) (UniProt Q13043)
[35] = molecular target: TAOK3 (human) (UniProt Q9H2K8)
[36] = molecular target: TNK1 (human) (UniProt Q13470)
[37] = molecular target: TNNI3K (human) (UniProt Q59H18)
TNNI3K (human), sequence (Q59H18 whole entry, looked up): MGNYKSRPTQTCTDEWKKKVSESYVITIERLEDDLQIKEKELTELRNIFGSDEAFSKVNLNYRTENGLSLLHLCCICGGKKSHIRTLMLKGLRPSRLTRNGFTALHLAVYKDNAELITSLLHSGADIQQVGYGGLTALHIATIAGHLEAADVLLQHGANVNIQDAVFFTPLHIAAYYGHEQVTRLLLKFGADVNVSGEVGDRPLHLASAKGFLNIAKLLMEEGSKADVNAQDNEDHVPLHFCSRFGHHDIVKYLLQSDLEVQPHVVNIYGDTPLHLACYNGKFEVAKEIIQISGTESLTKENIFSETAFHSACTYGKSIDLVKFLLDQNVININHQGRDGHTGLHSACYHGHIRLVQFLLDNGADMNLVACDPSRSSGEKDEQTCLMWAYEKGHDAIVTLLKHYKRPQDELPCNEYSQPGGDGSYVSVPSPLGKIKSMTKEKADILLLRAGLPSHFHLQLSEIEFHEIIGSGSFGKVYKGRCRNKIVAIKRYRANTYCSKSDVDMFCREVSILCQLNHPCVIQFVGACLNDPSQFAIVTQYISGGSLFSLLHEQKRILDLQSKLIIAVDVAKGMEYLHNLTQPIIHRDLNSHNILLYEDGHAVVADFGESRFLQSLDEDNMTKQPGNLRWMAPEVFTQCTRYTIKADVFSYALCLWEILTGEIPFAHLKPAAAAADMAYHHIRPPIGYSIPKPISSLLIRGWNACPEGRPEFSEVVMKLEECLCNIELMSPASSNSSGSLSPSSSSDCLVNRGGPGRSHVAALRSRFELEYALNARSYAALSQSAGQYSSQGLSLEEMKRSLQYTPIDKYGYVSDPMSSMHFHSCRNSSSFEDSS

[38] = molecular target: TYK2 JH2 pseudokinase (human) (UniProt P29597)
TYK2 JH2 pseudokinase (human), sequence (P29597 whole entry, looked up): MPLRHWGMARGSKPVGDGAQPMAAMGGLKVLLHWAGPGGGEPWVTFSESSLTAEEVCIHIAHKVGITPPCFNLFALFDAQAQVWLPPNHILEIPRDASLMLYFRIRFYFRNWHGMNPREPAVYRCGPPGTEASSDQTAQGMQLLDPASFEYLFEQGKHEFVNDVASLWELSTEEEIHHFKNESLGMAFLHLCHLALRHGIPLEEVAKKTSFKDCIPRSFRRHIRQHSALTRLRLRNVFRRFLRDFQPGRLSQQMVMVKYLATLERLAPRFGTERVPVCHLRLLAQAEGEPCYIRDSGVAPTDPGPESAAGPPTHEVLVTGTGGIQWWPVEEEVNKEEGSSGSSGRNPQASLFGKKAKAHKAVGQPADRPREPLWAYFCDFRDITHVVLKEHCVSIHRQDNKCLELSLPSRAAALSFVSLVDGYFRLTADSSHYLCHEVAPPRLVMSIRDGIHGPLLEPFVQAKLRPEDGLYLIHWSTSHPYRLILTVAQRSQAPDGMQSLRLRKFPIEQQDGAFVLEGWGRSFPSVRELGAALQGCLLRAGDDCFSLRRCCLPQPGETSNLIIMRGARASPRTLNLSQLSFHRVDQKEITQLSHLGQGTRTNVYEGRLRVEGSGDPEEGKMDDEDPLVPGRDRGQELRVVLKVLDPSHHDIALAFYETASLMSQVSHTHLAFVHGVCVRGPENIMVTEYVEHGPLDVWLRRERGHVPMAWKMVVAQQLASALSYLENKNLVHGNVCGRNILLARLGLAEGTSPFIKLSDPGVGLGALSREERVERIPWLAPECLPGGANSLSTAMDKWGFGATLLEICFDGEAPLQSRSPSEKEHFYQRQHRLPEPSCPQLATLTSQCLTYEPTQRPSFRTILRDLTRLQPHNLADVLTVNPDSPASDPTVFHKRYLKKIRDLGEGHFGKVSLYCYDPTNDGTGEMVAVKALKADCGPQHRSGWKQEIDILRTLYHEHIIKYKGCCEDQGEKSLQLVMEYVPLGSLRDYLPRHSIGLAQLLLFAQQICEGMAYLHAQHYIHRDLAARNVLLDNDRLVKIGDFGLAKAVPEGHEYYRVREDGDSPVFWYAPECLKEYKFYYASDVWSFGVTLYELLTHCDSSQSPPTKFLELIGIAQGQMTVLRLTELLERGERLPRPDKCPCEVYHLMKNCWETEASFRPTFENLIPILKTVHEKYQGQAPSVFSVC

[39] = molecular target: TYRO3 (human) (UniProt Q06418)
[40] = system: FLT3 (human), P36888 [ITD]
[41] = molecular target: MAP3K9 (human) (UniProt P80192)

ADCK3 (human), sequence (Q8NI60 whole entry, looked up): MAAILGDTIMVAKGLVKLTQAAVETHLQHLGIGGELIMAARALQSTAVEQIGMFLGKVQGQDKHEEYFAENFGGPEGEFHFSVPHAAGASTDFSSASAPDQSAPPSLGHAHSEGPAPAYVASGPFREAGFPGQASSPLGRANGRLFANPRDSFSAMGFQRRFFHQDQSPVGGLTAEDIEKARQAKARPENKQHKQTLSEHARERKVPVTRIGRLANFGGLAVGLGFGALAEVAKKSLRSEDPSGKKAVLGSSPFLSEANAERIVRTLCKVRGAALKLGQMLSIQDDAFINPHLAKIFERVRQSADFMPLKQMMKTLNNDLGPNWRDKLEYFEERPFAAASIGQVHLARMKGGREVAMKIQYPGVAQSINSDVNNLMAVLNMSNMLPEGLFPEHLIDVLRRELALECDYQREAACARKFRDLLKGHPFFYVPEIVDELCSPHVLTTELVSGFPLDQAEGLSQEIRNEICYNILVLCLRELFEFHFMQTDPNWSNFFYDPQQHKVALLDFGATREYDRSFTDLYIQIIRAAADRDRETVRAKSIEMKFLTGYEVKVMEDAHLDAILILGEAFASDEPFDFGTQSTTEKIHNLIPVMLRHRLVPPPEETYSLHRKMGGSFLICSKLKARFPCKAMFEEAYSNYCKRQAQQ

COc1ccc(CNC(=O)Nc2ncc([N+](=O)[O-])s2)cc1
kinase still bound, per cent of control [1]: 97% | kinase still bound, per cent of control [2]: 100% | kinase still bound, per cent of control [3]: 97% | kinase still bound, per cent of control [4]: 89% | kinase still bound, per cent of control [5]: 100% | kinase still bound, per cent of control [6]: 100% | kinase still bound, per cent of control [7]: 100% | kinase still bound, per cent of control [8]: 100% | kinase still bound, per cent of control [9]: 76% | kinase still bound, per cent of control [10]: 100% | kinase still bound, per cent of control [11]: 99% | kinase still bound, per cent of control [12]: 49% | kinase still bound, per cent of control [13]: 67% | kinase still bound, per cent of control [14]: 100% | kinase still bound, per cent of control [15]: 100% | kinase still bound, per cent of control [16]: 100% | kinase still bound, per cent of control [17]: 100% | kinase still bound, per cent of control [18]: 80% | kinase still bound, per cent of control [19]: 71% | kinase still bound, per cent of control [20]: 98% | kinase still bound, per cent of control [21]: 90% | kinase still bound, per cent of control [22]: 51% | kinase still bound, per cent of control [23]: 94% | kinase still bound, per cent of control [24]: 100% | kinase still bound, per cent of control [25]: 95% | kinase still bound, per cent of control [26]: 100% | kinase still bound, per cent of control [27]: 69% | kinase still bound, per cent of control [28]: 93% | kinase still bound, per cent of control [29]: 100% | kinase still bound, per cent of control [30]: 23% | kinase still bound, per cent of control [31]: 100% | kinase still bound, per cent of control [32]: 100% | kinase still bound, per cent of control [33]: 100% | kinase still bound, per cent of control [34]: 100% | kinase still bound, per cent of control [35]: 54% | kinase still bound, per cent of control [36]: 100% | kinase still bound, per cent of control [37]: 100% | kinase still bound, per cent of control [38]: 66% | kinase still bound, per cent of control [39]: 93%

Cc1cnc(-c2cnc(NCCNc3ccc(C#N)cn3)nc2-c2ccc(Cl)cc2Cl)[nH]1
kinase still bound, per cent of control [1]: 100% | kinase still bound, per cent of control [2]: 100% | kinase still bound, per cent of control [3]: 94% | kinase still bound, per cent of control [4]: 92% | kinase still bound, per cent of control [5]: 100% | kinase still bound, per cent of control [6]: 100% | kinase still bound, per cent of control [7]: 100% | kinase still bound, per cent of control [8]: 100% | kinase still bound, per cent of control [9]: 50% | kinase still bound, per cent of control [10]: 100% | kinase still bound, per cent of control [11]: 100% | kinase still bound, per cent of control [40]: 74% | kinase still bound, per cent of control [12]: 43% | kinase still bound, per cent of control [13]: 100% | kinase still bound, per cent of control [14]: 100% | kinase still bound, per cent of control [15]: 100% | kinase still bound, per cent of control [16]: 100% | kinase still bound, per cent of control [17]: 100% | kinase still bound, per cent of control [18]: 100% | kinase still bound, per cent of control [19]: 100% | kinase still bound, per cent of control [41]: 55% | kinase still bound, per cent of control [20]: 100% | kinase still bound, per cent of control [21]: 96% | kinase still bound, per cent of control [22]: 68% | kinase still bound, per cent of control [23]: 100% | kinase still bound, per cent of control [24]: 100% | kinase still bound, per cent of control [25]: 100% | kinase still bound, per cent of control [26]: 100% | kinase still bound, per cent of control [27]: 100% | kinase still bound, per cent of control [28]: 100% | kinase still bound, per cent of control [29]: 100% | kinase still bound, per cent of control [30]: 22% | kinase still bound, per cent of control [31]: 100% | kinase still bound, per cent of control [32]: 70% | kinase still bound, per cent of control [33]: 90% | kinase still bound, per cent of control [34]: 100% | kinase still bound, per cent of control [35]: 13% | kinase still bound, per cent of control [36]: 80% | kinase still bound, per cent of control [37]: 100% | kinase still bound, per cent of control [38]: 68% | kinase still bound, per cent of control [39]: 100%
